What was measured:
Format in all cases: in vivo
Settings in all cases: 250 g/h, evaluated after 13 days
Setaria faberi (SETFA) [1] = test: Post-emergence herbicidal glasshouse test, percentage damage
Method in brief: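 Percentage damage was scored 13 days after treatment on a five-point scale (1=0-19% to 5=80-100%). Treatments were post-emergence sprays on 8-day-old wheat, barley and SETFA plants in a glasshouse (24/16 °C day/night, 14 h light, 65% humidity), using acetone/water 50:50 with 0.5% Tween 20 at the stated rates. Wheat additionally received cloquintocet-mexyl safener at 50 g/ha.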

[2] = system: Alopecurus myosuroides (ALOMY); test: as above
Method in brief: (§1)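 Five-point damage scores (5=80-100%, 1=0-19%) were recorded 13 days after application of 250 g/h. Treatment was pre-emergence (1 day after sowing) or post-emergence (8 days), and plants were kept at 24/16 °C, 14 h light, 65% humidity with twice-daily watering.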

[3] = system: Echinochloa crus-galli (ECHCG); test: as above
Method in brief: as §1

Avena fatua (AVEFA) [4] = test: as above
Method in brief: as §1

Lolium perenne (LOLPE) [5] = test: as above
Method in brief: as §1

[6] = system: Alopecurus myosuroides (ALOMY); test: Pre-emergence herbicidal glasshouse test, percentage damage
Method in brief: as §1

[7] = system: Echinochloa crus-galli (ECHCG); test: as above
Method in brief: as §1

Setaria faberi (SETFA) [8] = test: as above
Method in brief: as §1

Avena fatua (AVEFA) [9] = test: as above
Method in brief: as §1

Lolium perenne (LOLPE) [10] = test: as above
Method in brief: as §1

SMILES | SETFA POST percentage damage (five point scale) (Setaria faberi (SETFA) [1]) | ALOMY POST percentage damage (five point scale) [2] | ECHCG POST percentage damage (five point scale) [3] | AVEFA POST percentage damage (five point scale) (Avena fatua (AVEFA) [4]) | LOLPE POST percentage damage (five point scale) (Lolium perenne (LOLPE) [5]) | ALOMY PRE percentage damage (five point scale) [6] | ECHCG PRE percentage damage (five point scale) [7] | SETFA PRE percentage damage (five point scale) (Setaria faberi (SETFA) [8]) | AVEFA PRE percentage damage (five point scale) (Avena fatua (AVEFA) [9]) | LOLPE PRE percentage damage (five point scale) (Lolium perenne (LOLPE) [10])
CC#Cc1cc(C)c(C2C(=O)CC3(CCN([S+]([O-])C(F)F)CC3)CC2=O)c(C)c1 (centres unmarked) [Compound A81] | 5 (5=80-100%) | 5 (5=80-100%) | 5 (5=80-100%) | 5 (5=80-100%) | 5 (5=80-100%) | 5 (5=80-100%) | 5 (5=80-100%) | 5 (5=80-100%) | 5 (5=80-100%) | 5 (5=80-100%)
CC#Cc1cc(C)c(C2C(=O)CC3(CCN(S(=O)(=O)C4CC4)CC3)CC2=O)c(C)c1 [Compound A82] | 5 (5=80-100%) | 5 (5=80-100%) | 5 (5=80-100%) | 5 (5=80-100%) | 5 (5=80-100%) | 5 (5=80-100%) | 5 (5=80-100%) | 5 (5=80-100%) | 5 (5=80-100%) | 5 (5=80-100%)
CC#Cc1cc(C)c(C2C(=O)CC3(CCN(S(=O)(=O)C4COC4)CC3)CC2=O)c(C)c1 [Compound A83] | 5 (5=80-100%) | 5 (5=80-100%) | 5 (5=80-100%) | 5 (5=80-100%) | 5 (5=80-100%) | 5 (5=80-100%) | 5 (5=80-100%) | 5 (5=80-100%) | 4 (4=60-79%) | 5 (5=80-100%)
CC#Cc1cc(C)c(C2C(=O)CC3(CCN(C(=O)c4ccccc4F)CC3)CC2=O)c(C)c1 [Compound A84] | 5 (5=80-100%) | 5 (5=80-100%) | 5 (5=80-100%) | 5 (5=80-100%) | 5 (5=80-100%) | 5 (5=80-100%) | 5 (5=80-100%) | 5 (5=80-100%) | 4 (4=60-79%) | 5 (5=80-100%)
CC#Cc1cc(C)c(C2C(=O)CC3(CCN([S+]([O-])C(C)(C)C)CC3)CC2=O)c(C)c1 (centres unmarked) [Compound A85] | 4 (4=60-79%) | 5 (5=80-100%) | 5 (5=80-100%) | 5 (5=80-100%) | 5 (5=80-100%) | 5 (5=80-100%) | 5 (5=80-100%) | 5 (5=80-100%) | 3 (3=40-59%) | 5 (5=80-100%)
CC#Cc1cc(C)c(C2C(=O)CC3(CCN(C(=O)N(C)C(C)=O)CC3)CC2=O)c(C)c1 [Compound A86] | 5 (5=80-100%) | 5 (5=80-100%) | 5 (5=80-100%) | 5 (5=80-100%) | 5 (5=80-100%) | 5 (5=80-100%) | 5 (5=80-100%) | 5 (5=80-100%) | 5 (5=80-100%) | 5 (5=80-100%)
CC#Cc1cc(C)c(C2C(=O)CC3(CCN(C(=O)C4=NOCC4)CC3)CC2=O)c(C)c1 [Compound A88] | 5 (5=80-100%) | 5 (5=80-100%) | 5 (5=80-100%) | 5 (5=80-100%) | 5 (5=80-100%) | 5 (5=80-100%) | 5 (5=80-100%) | 5 (5=80-100%) | 5 (5=80-100%) | 5 (5=80-100%)
CC#Cc1cc(C)c(C2C(=O)CC3(CCN(C(=O)c4ccc(C(F)(F)F)cn4)CC3)CC2=O)c(C)c1 [Compound A89] | 5 (5=80-100%) | 5 (5=80-100%) | 5 (5=80-100%) | 5 (5=80-100%) | 5 (5=80-100%) | 5 (5=80-100%) | 5 (5=80-100%) | 5 (5=80-100%) | 5 (5=80-100%) | 5 (5=80-100%)
CC#Cc1cc(C)c(C2C(=O)CC3(CCN(C(=O)c4cc(C(F)(F)F)ccn4)CC3)CC2=O)c(C)c1 [Compound A90] | 5 (5=80-100%) | 5 (5=80-100%) | 5 (5=80-100%) | 5 (5=80-100%) | 5 (5=80-100%) | 5 (5=80-100%) | 5 (5=80-100%) | 5 (5=80-100%) | 5 (5=80-100%) | 5 (5=80-100%)
CC#Cc1cc(C)c(C2C(=O)CC3(CCN(C(=O)c4cccc(C(F)(F)F)n4)CC3)CC2=O)c(C)c1 [Compound A91] | 5 (5=80-100%) | 5 (5=80-100%) | 5 (5=80-100%) | 5 (5=80-100%) | 5 (5=80-100%) | 5 (5=80-100%) | 5 (5=80-100%) | 5 (5=80-100%) | 5 (5=80-100%) | 5 (5=80-100%)
CC#Cc1cc(C)c(C2C(=O)CC3(CCN(C(=O)Cc4cccnc4)CC3)CC2=O)c(C)c1 [Compound A99] | 5 (5=80-100%) | 4 (4=60-79%) | 5 (5=80-100%) | 5 (5=80-100%) | 4 (4=60-79%) | 3 (3=40-59%) | 5 (5=80-100%) | 4 (4=60-79%) | 3 (3=40-59%) | 4 (4=60-79%)

Reference: patent US12043599B2, “Herbicidal compounds” (SYNGENTA PARTICIPATIONS AG, priority 2018, dated 2024)
